{"source": "ChEMBL document CHEMBL5465560", "about": "“Selectivity Literature for EUbOPEN Chemogenomic Library” (2024)", "key": {"[1]": {"target": "T1, Serine/threonine-protein kinase Nek1 (Homo sapiens) (UniProt Q96PY6)", "T1 sequence (whole entry)": "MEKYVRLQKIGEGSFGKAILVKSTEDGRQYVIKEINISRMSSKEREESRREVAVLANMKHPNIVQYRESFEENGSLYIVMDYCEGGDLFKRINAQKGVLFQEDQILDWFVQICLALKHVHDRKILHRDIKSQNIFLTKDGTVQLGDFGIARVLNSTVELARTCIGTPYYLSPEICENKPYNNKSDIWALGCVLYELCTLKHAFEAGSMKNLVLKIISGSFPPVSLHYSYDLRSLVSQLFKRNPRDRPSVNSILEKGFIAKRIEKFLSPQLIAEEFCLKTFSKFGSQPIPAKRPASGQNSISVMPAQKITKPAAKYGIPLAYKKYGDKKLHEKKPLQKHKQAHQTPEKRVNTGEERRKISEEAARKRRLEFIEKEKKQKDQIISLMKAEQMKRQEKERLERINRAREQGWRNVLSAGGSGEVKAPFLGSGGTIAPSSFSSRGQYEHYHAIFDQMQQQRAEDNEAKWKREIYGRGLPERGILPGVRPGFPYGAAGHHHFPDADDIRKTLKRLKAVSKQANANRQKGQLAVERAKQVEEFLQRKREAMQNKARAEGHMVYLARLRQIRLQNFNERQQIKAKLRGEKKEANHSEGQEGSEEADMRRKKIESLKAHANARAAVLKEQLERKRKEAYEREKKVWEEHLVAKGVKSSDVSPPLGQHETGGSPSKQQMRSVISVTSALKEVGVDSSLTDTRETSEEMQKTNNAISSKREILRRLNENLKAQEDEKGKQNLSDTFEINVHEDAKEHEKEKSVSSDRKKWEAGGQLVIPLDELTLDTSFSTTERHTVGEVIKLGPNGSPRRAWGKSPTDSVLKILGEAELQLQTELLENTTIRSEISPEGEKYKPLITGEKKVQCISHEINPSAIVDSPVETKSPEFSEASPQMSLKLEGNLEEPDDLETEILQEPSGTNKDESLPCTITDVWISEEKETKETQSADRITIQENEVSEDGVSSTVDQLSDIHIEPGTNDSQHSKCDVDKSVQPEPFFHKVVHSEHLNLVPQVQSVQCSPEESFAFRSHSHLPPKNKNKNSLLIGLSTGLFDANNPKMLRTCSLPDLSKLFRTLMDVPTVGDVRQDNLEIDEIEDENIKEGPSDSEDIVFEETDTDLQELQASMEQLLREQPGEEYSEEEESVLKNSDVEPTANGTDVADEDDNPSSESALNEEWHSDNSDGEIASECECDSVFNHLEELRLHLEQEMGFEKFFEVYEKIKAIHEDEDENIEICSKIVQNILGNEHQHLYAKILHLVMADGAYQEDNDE", "details": "at 10 µM"}, "[2]": {"target": "5'-AMP-activated protein kinase catalytic subunit alpha-1 (Homo sapiens, UniProt Q13131)", "sequence (Q13131 whole entry, looked up)": "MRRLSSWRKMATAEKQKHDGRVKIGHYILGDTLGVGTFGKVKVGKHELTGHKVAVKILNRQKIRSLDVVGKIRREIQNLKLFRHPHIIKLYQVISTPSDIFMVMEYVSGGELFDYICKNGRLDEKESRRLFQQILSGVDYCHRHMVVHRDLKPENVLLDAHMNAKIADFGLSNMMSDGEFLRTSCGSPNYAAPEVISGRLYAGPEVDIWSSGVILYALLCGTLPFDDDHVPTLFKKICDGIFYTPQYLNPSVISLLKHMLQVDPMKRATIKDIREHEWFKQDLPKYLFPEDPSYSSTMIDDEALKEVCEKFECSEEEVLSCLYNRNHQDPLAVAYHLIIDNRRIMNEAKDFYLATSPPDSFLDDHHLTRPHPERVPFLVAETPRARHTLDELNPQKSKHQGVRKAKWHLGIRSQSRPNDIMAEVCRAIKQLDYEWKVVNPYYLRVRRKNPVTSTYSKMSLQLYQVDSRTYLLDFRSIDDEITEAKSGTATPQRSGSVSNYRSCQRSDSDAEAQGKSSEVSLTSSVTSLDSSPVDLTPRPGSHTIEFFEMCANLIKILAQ", "assay": "Selectivity interaction (ActivX KiNativ screen (kinase selectivity in THP-1 cell lysates)) EUB0000639a PRKAA1", "assay_type": "subcellular", "details": "lysate, at 5 µM"}, "[3]": {"target": "T2, Protein arginine N-methyltransferase 7 (Homo sapiens) (UniProt Q9NVM4)", "T2 sequence (whole entry)": "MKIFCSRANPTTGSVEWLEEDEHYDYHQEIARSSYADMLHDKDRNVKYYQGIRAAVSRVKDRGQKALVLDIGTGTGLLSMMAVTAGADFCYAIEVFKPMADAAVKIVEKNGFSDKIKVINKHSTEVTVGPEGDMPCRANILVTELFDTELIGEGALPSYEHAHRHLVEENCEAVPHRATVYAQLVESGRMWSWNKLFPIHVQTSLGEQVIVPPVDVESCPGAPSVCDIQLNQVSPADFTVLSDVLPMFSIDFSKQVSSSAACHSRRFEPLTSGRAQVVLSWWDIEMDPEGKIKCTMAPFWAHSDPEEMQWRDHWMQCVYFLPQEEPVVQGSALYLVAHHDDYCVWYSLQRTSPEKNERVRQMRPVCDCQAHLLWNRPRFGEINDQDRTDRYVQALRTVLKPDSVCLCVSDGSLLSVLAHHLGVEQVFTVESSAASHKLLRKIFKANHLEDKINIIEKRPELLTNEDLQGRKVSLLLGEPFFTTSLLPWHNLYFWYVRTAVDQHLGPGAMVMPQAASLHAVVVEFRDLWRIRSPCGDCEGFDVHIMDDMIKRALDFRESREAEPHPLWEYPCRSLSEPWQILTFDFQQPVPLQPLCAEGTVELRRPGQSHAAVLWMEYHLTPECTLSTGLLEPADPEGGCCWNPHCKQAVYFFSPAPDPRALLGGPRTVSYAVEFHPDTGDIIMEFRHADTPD", "assay": "Selectivity interaction (Transferase panel (protein, RNA, and DNA methyltransferases. and EP300 (acetyltransferase))) EUB0000270b PRMT7"}, "[4]": {"target": "Serine/threonine-protein kinase Chk1 (Homo sapiens, UniProt O14757)", "sequence (O14757 whole entry)": "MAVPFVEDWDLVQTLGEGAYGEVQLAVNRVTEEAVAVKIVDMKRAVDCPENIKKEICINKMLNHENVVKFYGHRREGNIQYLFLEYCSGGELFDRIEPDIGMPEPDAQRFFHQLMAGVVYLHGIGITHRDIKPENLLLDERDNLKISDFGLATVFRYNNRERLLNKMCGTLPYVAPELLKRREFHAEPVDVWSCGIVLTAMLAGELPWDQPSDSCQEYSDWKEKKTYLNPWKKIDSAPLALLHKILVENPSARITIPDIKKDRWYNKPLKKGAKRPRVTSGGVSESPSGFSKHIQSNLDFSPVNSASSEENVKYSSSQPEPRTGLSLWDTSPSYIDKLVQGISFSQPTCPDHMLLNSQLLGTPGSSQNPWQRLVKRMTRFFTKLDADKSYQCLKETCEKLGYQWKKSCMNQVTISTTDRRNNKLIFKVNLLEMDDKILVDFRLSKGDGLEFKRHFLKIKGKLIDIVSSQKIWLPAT"}, "[5]": {"target": "Myosin light chain kinase 2, skeletal/cardiac muscle (Homo sapiens) (UniProt Q9H1R3)", "sequence (Q9H1R3 whole entry)": "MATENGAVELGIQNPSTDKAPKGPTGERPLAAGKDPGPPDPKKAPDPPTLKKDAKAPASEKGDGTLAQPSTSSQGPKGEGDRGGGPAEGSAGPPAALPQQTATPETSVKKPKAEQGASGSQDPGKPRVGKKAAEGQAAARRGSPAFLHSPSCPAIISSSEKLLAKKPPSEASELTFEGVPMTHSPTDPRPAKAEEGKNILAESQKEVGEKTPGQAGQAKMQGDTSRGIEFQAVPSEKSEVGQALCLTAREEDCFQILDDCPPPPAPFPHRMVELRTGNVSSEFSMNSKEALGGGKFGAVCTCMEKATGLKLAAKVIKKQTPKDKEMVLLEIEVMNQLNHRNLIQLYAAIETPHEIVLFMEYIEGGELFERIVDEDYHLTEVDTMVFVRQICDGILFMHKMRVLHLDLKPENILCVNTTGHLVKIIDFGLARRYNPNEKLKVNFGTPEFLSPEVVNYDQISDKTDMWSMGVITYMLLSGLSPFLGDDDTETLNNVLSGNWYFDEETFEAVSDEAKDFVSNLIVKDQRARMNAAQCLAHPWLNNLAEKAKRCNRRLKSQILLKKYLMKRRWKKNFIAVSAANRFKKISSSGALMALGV", "assay": "Selectivity interaction (KinomeScan (DiscoverX)) EUB0000695a MYLK2", "details": "at 100 nM"}, "[6]": {"target": "MAP kinase-activated protein kinase 2 (Homo sapiens, UniProt P49137)", "sequence (P49137 whole entry, looked up)": "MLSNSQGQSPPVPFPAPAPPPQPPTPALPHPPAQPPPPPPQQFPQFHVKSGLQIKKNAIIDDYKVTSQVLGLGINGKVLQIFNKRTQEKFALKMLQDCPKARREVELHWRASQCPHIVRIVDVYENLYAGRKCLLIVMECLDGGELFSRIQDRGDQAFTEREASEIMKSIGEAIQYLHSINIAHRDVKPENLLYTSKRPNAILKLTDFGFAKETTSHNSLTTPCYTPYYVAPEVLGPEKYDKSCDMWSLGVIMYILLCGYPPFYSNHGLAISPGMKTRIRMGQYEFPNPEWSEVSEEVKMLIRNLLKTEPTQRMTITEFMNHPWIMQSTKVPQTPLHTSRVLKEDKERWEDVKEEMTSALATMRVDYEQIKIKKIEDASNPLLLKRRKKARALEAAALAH", "details": "at 10 µM"}, "[7]": {"target": "T3, Serine/threonine-protein kinase RIO1 (Homo sapiens) (UniProt Q9BRS2)", "T3 sequence (whole entry)": "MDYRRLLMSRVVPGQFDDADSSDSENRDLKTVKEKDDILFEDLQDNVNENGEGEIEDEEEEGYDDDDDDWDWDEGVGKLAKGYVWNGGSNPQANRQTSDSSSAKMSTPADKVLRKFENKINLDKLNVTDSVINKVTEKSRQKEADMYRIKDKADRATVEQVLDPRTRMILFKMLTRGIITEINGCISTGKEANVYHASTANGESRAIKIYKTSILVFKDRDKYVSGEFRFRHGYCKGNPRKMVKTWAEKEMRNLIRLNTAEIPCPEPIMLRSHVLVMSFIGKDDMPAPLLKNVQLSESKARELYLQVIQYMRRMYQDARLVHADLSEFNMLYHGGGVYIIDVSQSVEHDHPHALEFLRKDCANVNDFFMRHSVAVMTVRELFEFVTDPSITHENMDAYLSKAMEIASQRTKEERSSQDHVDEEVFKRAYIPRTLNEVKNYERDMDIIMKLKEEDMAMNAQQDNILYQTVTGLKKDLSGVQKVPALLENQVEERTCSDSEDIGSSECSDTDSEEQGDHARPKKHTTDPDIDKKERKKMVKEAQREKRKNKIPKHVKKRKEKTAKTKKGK", "assay": "Selectivity interaction (KinomeScan (DiscoverX)) EUB0000229b RIOK1", "details": "at 10 µM"}, "[8]": {"target": "Calcium/calmodulin-dependent protein kinase type II subunit delta (Homo sapiens) (UniProt Q13557)", "sequence (Q13557 whole entry)": "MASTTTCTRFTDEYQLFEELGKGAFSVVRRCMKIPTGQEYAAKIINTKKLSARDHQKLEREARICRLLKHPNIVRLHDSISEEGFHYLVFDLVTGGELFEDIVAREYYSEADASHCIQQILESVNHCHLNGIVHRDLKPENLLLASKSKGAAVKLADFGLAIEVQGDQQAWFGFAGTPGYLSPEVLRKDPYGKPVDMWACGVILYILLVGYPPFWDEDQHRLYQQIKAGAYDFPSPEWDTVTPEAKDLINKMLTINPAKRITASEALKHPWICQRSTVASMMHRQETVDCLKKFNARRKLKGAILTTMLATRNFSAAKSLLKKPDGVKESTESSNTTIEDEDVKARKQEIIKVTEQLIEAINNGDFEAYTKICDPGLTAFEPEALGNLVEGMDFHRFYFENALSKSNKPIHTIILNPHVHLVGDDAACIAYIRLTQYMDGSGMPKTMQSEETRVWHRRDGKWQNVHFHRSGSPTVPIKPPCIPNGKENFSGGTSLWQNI", "assay": "Selectivity interaction (KinomeScan (DiscoverX)) EUB0000655a CAMK2D", "details": "at 10 µM"}, "[9]": {"target": "Homeodomain-interacting protein kinase 2 (Homo sapiens, UniProt Q9H2X6)", "sequence (Q9H2X6 whole entry, looked up)": "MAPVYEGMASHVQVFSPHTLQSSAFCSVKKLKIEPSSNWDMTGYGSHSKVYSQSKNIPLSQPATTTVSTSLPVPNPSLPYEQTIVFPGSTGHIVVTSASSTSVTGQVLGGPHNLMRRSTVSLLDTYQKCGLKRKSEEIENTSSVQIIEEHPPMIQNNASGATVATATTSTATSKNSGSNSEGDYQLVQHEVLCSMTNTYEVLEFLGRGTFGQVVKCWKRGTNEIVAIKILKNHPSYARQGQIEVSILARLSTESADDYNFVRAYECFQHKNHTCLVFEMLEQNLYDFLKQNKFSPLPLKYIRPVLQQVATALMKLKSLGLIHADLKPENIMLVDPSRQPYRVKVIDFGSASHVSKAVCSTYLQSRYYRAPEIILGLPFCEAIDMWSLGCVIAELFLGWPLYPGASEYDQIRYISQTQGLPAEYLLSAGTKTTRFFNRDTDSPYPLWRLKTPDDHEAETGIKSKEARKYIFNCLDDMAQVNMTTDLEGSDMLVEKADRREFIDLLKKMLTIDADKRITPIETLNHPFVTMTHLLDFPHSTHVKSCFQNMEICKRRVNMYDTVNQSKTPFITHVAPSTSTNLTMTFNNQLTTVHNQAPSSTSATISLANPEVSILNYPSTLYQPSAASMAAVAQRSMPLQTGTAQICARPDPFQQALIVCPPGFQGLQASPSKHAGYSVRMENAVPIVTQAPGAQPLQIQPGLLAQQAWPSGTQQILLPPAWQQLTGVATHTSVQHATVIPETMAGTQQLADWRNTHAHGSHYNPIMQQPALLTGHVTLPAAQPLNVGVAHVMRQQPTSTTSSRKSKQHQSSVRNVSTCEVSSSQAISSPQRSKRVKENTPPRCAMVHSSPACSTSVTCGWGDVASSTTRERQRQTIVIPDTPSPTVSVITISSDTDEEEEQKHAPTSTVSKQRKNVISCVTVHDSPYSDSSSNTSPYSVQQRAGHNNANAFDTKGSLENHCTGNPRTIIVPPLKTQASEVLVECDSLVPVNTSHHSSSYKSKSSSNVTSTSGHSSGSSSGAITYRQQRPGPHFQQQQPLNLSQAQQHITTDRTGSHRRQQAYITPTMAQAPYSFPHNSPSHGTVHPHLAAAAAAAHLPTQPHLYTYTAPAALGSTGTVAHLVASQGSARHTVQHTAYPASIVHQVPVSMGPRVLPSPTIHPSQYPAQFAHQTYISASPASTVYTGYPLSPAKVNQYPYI", "assay": "Selectivity interaction (KinomeScan (DiscoverX)) EUB0000607a HIPK2", "details": "at 10 µM"}}}
{"smiles": "Cc1cc([C@@H](C)Nc2ccccc2C(=O)O)c2nc(N3CCOCC3)cc(=O)n2c1", "note": "[AZD-6482]", "values": [{"measurement": "% of control", "setting": "[1]", "value": 85, "unit": "%"}]}
{"smiles": "CC[C@@H]1[C@H](F)C(=O)N[C@@H]1COc1nccc2cc(C(N)=O)c(OC)cc12", "note": "[ZIMLOVISERTIB]", "values": [{"measurement": "% of inhibition", "setting": "[2]", "value": 21.9, "unit": "%"}]}
{"smiles": "Cc1cc(CN)cc(C)c1-c1ncn(C)c1-c1cncn1C", "values": [{"measurement": "% activity", "setting": "[3]; at 1 µM", "value": "> 90", "unit": "%"}, {"measurement": "% activity", "setting": "[3]; at 10 µM", "value": "> 80", "unit": "%"}]}
{"smiles": "CCc1cccc(CC)c1NC(=O)c1nn(C)c2c1CCc1cnc(Nc3ccc(C(=O)NC4CCN(C)CC4)cc3OC(F)(F)F)nc1-2", "values": [{"measurement": "IC50", "setting": "[4]", "value": "> 10", "unit": "µM"}]}
{"smiles": "Cc1cc(F)c(C(=O)Nc2cccc(-c3nncn3C(C)C)n2)cc1-n1cnc(C2CC2)c1", "values": [{"measurement": "% of control", "setting": "[5]", "value": 100, "unit": "%"}]}
{"smiles": "CCN(CC)CCCCNc1ncc2cc(-c3cc(OC)cc(OC)c3)c(NC(=O)NC(C)(C)C)nc2n1", "values": [{"measurement": "% of control", "setting": "[6]", "value": 100, "unit": "%"}]}
{"smiles": "COc1cc(N(C)c2ccnc3ccc(C(F)(F)F)cc23)cc(OC)c1OC", "values": [{"measurement": "% binding", "setting": "[7]", "value": 95, "unit": "%"}]}
{"smiles": "CN(C)CCOc1ccc(-c2nc(-c3ccncc3)c(-c3ccc4c(c3)CC/C4=N\\O)[nH]2)cc1", "values": [{"measurement": "% of control", "setting": "[8]", "value": 100, "unit": "%"}]}
{"smiles": "CNC(=O)Nc1ccc(-c2nc(N3CC4CCC(C3)O4)c3cnn(C4CCC5(CC4)OCCO5)c3n2)cc1", "values": [{"measurement": "% of control", "setting": "[9]", "value": 100, "unit": "%"}]}
